As a reminder, the IC50 is the concentration that gives 50% inhibition. In general, IC90 refers to the point of the concentration-response curve where the effect stands at 90%.

A value given as a limit tells only on which side of the number the result lay.

Consider 36 molecules from ChEMBL document CHEMBL4483862, “Open-source discovery of chemical leads for next-generation chemoprotective antimalarials” (2018).

For this test, the system named is Plasmodium berghei. Put plainly: Luciferase/luciferin-expressing antifolate-resistant parasites were used to infect a culture of HepG2 cells that were pre-incubated with compounds. Infected hepatocytes emit light due to the luciferase reaction. Assay results are presented as the percent inhibition of light emission compared to control. […]. Format: functional. To be noted: sporozoite; for IC90: read-out: LUCIFERASE INFECTION ASSAY - IC90.

Consider `CC(C)CC(N)c1csc(NC(=O)Nc2ccccc2C(C)(C)C)n1` (configuration not stated), for which the 90% effect concentration (IC90) is 3.05 µM. For the same molecule, the concentration for half-maximal inhibition (IC50) (PBLUC_HILL_SLOPE 4.98, PBLUC_R_SQUARED 0.541, read-out: LUCIFERASE INFECTION ASSAY - IC50) was 1.96 µM.
As to `COc1cc(/C=N/NC(=S)NC2CC3CC2C2C=CCC32)ccc1O` (configuration not stated), the IC90 was over 9.23 µM. The half-maximal inhibitory concentration (IC50) (PBLUC_HILL_SLOPE 5.25, PBLUC_R_SQUARED 0.0239, read-out: LUCIFERASE INFECTION ASSAY - IC50) is over 9.23 µM.
With `CCN(CC)CCn1c(NC(=O)c2cc3c(s2)CCCC3)nc2ccccc21`, the IC90 was over 10 µM. The half-maximal inhibitory concentration (IC50) (PBLUC_HILL_SLOPE 4.87, PBLUC_R_SQUARED 0.309, read-out: LUCIFERASE INFECTION ASSAY - IC50) came to 6.91 µM.
`Cc1c(N/N=C(/C(=O)Nc2ccccc2)C(=O)c2ccccc2)c(=O)n(-c2ccccc2)n1C`: the IC90 was over 10 µM. Also, under “PBLUC_HILL_SLOPE 4.97, PBLUC_R_SQUARED 0.638, read-out: LUCIFERASE INFECTION ASSAY - IC50”, the IC50 is 8.09 µM.
As to `COc1cc(NC(=O)N2Cc3cnc(Nc4ccc(Oc5ccccc5)cc4)nc3C2)cc(OC)c1OC`, the IC90 is over 6.43 µM. Further, for the setting “PBLUC_HILL_SLOPE 5.21, PBLUC_R_SQUARED 0.0507, read-out: LUCIFERASE INFECTION ASSAY - IC50”, the 50% inhibitory concentration (IC50) worked out at 5.26 µM.
Consider `CC(C)c1ccccc1NC(=O)Nc1nc(C(N)Cc2ccc(Cl)cc2)cs1` (configuration not stated), for which the IC90 is over 7.95 µM. Also, the IC50 (PBLUC_HILL_SLOPE 4.88, PBLUC_R_SQUARED 0.323, read-out: LUCIFERASE INFECTION ASSAY - IC50) came out at 5.13 µM.
In the case of `NC(COCc1ccccc1)c1csc(NC(=O)Nc2ccccc2-c2ccccc2)n1` (configuration not stated), the IC90 came out at 5.31 µM. Moreover, the half-inhibitory concentration (IC50) (PBLUC_HILL_SLOPE 5.09, PBLUC_R_SQUARED 0.778, read-out: LUCIFERASE INFECTION ASSAY - IC50) came out at 3.45 µM.
Take `Cc1nn(-c2ccc(C(=O)Nc3nc(CN4CCCC4)cs3)cc2)c(C)c1Cl`: the 90% effect concentration (IC90) stood at 7.87 µM. Moreover, the concentration for half-maximal inhibition (IC50) (PBLUC_HILL_SLOPE 4.86, PBLUC_R_SQUARED 0.713, read-out: LUCIFERASE INFECTION ASSAY - IC50) came out at 5.01 µM.
Take `Cc1cccc(-c2cn3c(-c4cccc(O)c4)cnc3cn2)c1C`: the IC90 is over 10.5 µM. Also, the concentration for half-maximal inhibition (IC50) (PBLUC_HILL_SLOPE 4.97, PBLUC_R_SQUARED 0.533, read-out: LUCIFERASE INFECTION ASSAY - IC50) was found to be 8.4 µM.
As for `C=CCn1c(SCC(=O)c2cc(C)n(-c3cc(F)ccc3F)c2C)nc2scc(-c3ccccc3)c2c1=O`, the IC90 was 8.56 µM. Where the note is “PBLUC_HILL_SLOPE 5.29, PBLUC_R_SQUARED 0.561, read-out: LUCIFERASE INFECTION ASSAY - IC50”, the concentration for half-maximal inhibition (IC50) stood at 5.65 µM.
Consider `CC(C)OC(=O)c1c(NC(=O)CSc2nnc(N)[nH]2)sc2c1CCCC2`, for which the concentration for an effect of 90% (IC90) is over 10 µM. Moreover, the IC50 (PBLUC_HILL_SLOPE 4.93, PBLUC_R_SQUARED 0.291, read-out: LUCIFERASE INFECTION ASSAY - IC50) came out at 7.71 µM.
As to `COc1cc(OC)cc(-c2cn3c(-c4ccc(CO)cc4)cnc3cn2)c1`, the IC90 turned out to be 8.34 µM. Also, for the setting “PBLUC_HILL_SLOPE 5.1, PBLUC_R_SQUARED 0.643, read-out: LUCIFERASE INFECTION ASSAY - IC50”, the IC50 amounted to 5.42 µM.
Take `CCC(C)NC(=O)c1c(NC(=O)c2ccc(C)cc2)nc2ccc(C)cn12` (configuration not stated): the IC90 turned out to be 7.69 µM. The IC50 (PBLUC_HILL_SLOPE 5.31, PBLUC_R_SQUARED 0.131, read-out: LUCIFERASE INFECTION ASSAY - IC50) is 5.08 µM.
`CCN(CC)S(=O)(=O)c1cc(C)c(C)c(NC(=O)c2cc(C3CC3)nc3onc(C)c23)c1`: the 90% effect concentration (IC90) turned out to be 9.64 µM. In addition, where the note is “PBLUC_HILL_SLOPE 5.13, PBLUC_R_SQUARED 0.485, read-out: LUCIFERASE INFECTION ASSAY - IC50”, the half-maximal inhibitory concentration (IC50) amounted to 6.28 µM.
As for `Cc1c(C)c(C)c(S(=O)(=O)N2CCN(C(C)C(=O)NC3CC3)CC2)c(C)c1C` (configuration not stated), the IC90 worked out at 9.56 µM. For the same molecule, where the note is “PBLUC_HILL_SLOPE 4.98, PBLUC_R_SQUARED 0.411, read-out: LUCIFERASE INFECTION ASSAY - IC50”, the IC50 came to 6.15 µM.
On to `O=C(NCc1sccc1Cl)Nc1cccc(Cl)c1`, for which the 90% effect concentration (IC90) is over 11 µM. Further, under “PBLUC_HILL_SLOPE 5.24, PBLUC_R_SQUARED 0.165, read-out: LUCIFERASE INFECTION ASSAY - IC50”, the IC50 was 7.24 µM.
Turning to `Cn1nc(C(=O)N2CCc3ccccc3C2)c2c1CCC(NCCc1nc(-c3ccccc3)cs1)C2` (configuration not stated), the IC90 is over 6.63 µM. In addition, the IC50 (PBLUC_HILL_SLOPE 5.11, PBLUC_R_SQUARED 0.298, read-out: LUCIFERASE INFECTION ASSAY - IC50) stood at 5.56 µM.
Take `CCC1CCc2sc(C(=O)NCCc3ccccn3)cc2C1` (configuration not stated): the IC90 is over 10 µM. For the same molecule, where the note is “PBLUC_HILL_SLOPE 5.05, PBLUC_R_SQUARED 0.237, read-out: LUCIFERASE INFECTION ASSAY - IC50”, the IC50 came out at 7.77 µM.
`O=C(c1cnc(Nc2cccc(C(F)(F)F)c2)[nH]1)c1ccccc1O`: the IC90 was found to be 7.03 µM. Under “PBLUC_HILL_SLOPE 5.05, PBLUC_R_SQUARED 0.685, read-out: LUCIFERASE INFECTION ASSAY - IC50”, the IC50 worked out at 4.55 µM.
Regarding `Cc1cc(C(=O)NCC#Cc2cccc(C(F)(F)F)c2)on1`, the IC90 worked out at 8.21 µM. Moreover, the half-inhibitory concentration (IC50) (PBLUC_HILL_SLOPE 5.05, PBLUC_R_SQUARED 0.342, read-out: LUCIFERASE INFECTION ASSAY - IC50) stood at 5.32 µM.
On to `CCN(CC)C(CNC(=O)c1ccc2c(c1)OCC(=O)N2)c1ccccc1Cl` (configuration not stated), for which the IC90 was 8.02 µM. Where the note is “PBLUC_HILL_SLOPE 4.94, PBLUC_R_SQUARED 0.519, read-out: LUCIFERASE INFECTION ASSAY - IC50”, the IC50 came to 5.14 µM.
As to `O=C(CCc1c(-c2ccc(F)cc2)[nH]c2ccc(F)cc12)N1CCN(c2ccncc2)CC1`, the 90% effect concentration (IC90) was determined as 8.48 µM. Moreover, the half-inhibitory concentration (IC50) (PBLUC_HILL_SLOPE 5.15, PBLUC_R_SQUARED 0.285, read-out: LUCIFERASE INFECTION ASSAY - IC50) was 5.53 µM.
Take `Cc1cc(C)n(-c2nc(-c3ccccc3)cc(N3CCOCC3)n2)n1`: the 90% effect concentration (IC90) stood at 6.26 µM. In addition, the half-inhibitory concentration (IC50) (PBLUC_HILL_SLOPE 5.14, PBLUC_R_SQUARED 0.351, read-out: LUCIFERASE INFECTION ASSAY - IC50) amounted to 4.08 µM.
Consider `Cc1cc(C)n(-c2nc(C)c(Br)c(NC(C)c3ccccc3)n2)n1` (configuration not stated), for which the concentration for an effect of 90% (IC90) was over 8.54 µM. Also, the half-maximal inhibitory concentration (IC50) (PBLUC_HILL_SLOPE 5.33, PBLUC_R_SQUARED 0.256, read-out: LUCIFERASE INFECTION ASSAY - IC50) was found to be 5.95 µM.
`CCNC(=O)c1nn(Cc2cccc(OC)c2)c2c1CN(CCC(C)c1ccc(C)o1)CC2` (configuration not stated): the IC90 was over 7.32 µM. Moreover, the IC50 (PBLUC_HILL_SLOPE 5.04, PBLUC_R_SQUARED 0.686, read-out: LUCIFERASE INFECTION ASSAY - IC50) came to 6.68 µM.
For `CC(C)Oc1cccc(-c2cn3c(-c4ccc(C(=O)NC5CC5)cc4)cnc3cn2)c1`, the 90% effect concentration (IC90) was 7.18 µM. For the same molecule, for the setting “PBLUC_HILL_SLOPE 5.31, PBLUC_R_SQUARED 0.43, read-out: LUCIFERASE INFECTION ASSAY - IC50”, the IC50 was determined as 4.75 µM.
Turning to `Cn1ccnc1Sc1ncnc2sccc12`, the IC90 was found to be 3.92 µM. Besides, under “PBLUC_HILL_SLOPE 5.04, PBLUC_R_SQUARED 0.521, read-out: LUCIFERASE INFECTION ASSAY - IC50”, the IC50 was determined as 2.53 µM.
As for `CN(C)CCNC(=O)c1cccc(-c2cnc3ccc(-c4cccc(F)c4)nn23)c1`, the concentration for an effect of 90% (IC90) turned out to be 9.29 µM. In addition, for the setting “PBLUC_HILL_SLOPE 5.28, PBLUC_R_SQUARED 0.0552, read-out: LUCIFERASE INFECTION ASSAY - IC50”, the IC50 turned out to be 6.13 µM.
As to `c1ccc2[nH]c(CN3CCN(Cc4csc5ccccc45)CC3)nc2c1`, the IC90 is over 10 µM. Also, the concentration for half-maximal inhibition (IC50) (PBLUC_HILL_SLOPE 5.23, 12.9, PBLUC_R_SQUARED 0.488, 0.411, read-out: LUCIFERASE INFECTION ASSAY - IC50) is 9.2 µM.
On to `Cc1nn(-c2ccccc2)c(Cl)c1/C=N/OCC(=O)Nc1cccc(C(F)(F)F)c1`, for which the IC90 stood at 9.91 µM. Further, the IC50 (PBLUC_HILL_SLOPE 4.91, 2.77, PBLUC_R_SQUARED 0.190, 0.335, read-out: LUCIFERASE INFECTION ASSAY - IC50) was 5.6 µM.
As to `Cn1ccnc1SCC(=O)Nc1ccc(C(=O)Nc2ncccc2O)cc1`, the 90% effect concentration (IC90) was 5.1 µM. Further, the IC50 (PBLUC_HILL_SLOPE 5, PBLUC_R_SQUARED 0.401, read-out: LUCIFERASE INFECTION ASSAY - IC50) worked out at 3.28 µM.
Take `CS(=O)(=O)Nc1cccc(-c2cnc3sc(NCCOc4ccccc4)nn23)c1`: the IC90 was over 7.68 µM. Moreover, the IC50 (PBLUC_HILL_SLOPE 4.91, PBLUC_R_SQUARED 0.558, read-out: LUCIFERASE INFECTION ASSAY - IC50) was 5.02 µM.
With `CC(OC(=O)c1cc(-c2ccccc2)nc2c1cnn2Cc1ccccc1)C(=O)NC(C)(C)C` (configuration not stated), the concentration for an effect of 90% (IC90) worked out at 6.73 µM. The IC50 (PBLUC_HILL_SLOPE 5.07, PBLUC_R_SQUARED 0.772, read-out: LUCIFERASE INFECTION ASSAY - IC50) was determined as 4.36 µM.
As for `CCNC(=O)c1nn(CC2CC2)c2c1CN(C(=O)c1cc(-c3ccccc3F)n[nH]1)CC2`, the 90% effect concentration (IC90) is 4.07 µM. The half-inhibitory concentration (IC50) (PBLUC_HILL_SLOPE 5.13, PBLUC_R_SQUARED 0.551, read-out: LUCIFERASE INFECTION ASSAY - IC50) came out at 2.65 µM.
Regarding `COc1cc(Nc2ccn3ncc(-c4ccc(OC(F)(F)F)cc4)c3n2)cc(OC)c1OC`, the IC90 amounted to 5.74 µM. Further, the IC50 (PBLUC_HILL_SLOPE 5.07, PBLUC_R_SQUARED 0.236, read-out: LUCIFERASE INFECTION ASSAY - IC50) is 3.72 µM.
In the case of `Cc1cc(C(=O)COc2ccc(CC(=O)O)cc2)c(C)n1CCC(C)C`, the IC90 was 7.13 µM. For the setting “PBLUC_HILL_SLOPE 4.94, 3.04, PBLUC_R_SQUARED 0.440, 0.373, read-out: LUCIFERASE INFECTION ASSAY - IC50”, the IC50 is 5.4 µM.
